Columns and labels:
DU145 prostate carcinoma = test: in vitro amino acid uptake, DU145 cells; format: cell-based, human
Text: The inventive compounds have been evaluated in vitro for tumor binding specificity (i.e. uptake cells) using a variety of tumor cell lines available in the art, along with reference compounds such as Me-AIB and BCH. Detailed description of these assays can be found in Martarello et al. (2002) Journal of Medicinal Chemistry, 45:2250-2259 and McConathy et al. (2003) Nuclear Medicine and Biology, 30:477-490. These, so called “amino acid uptake studies” are typically carried out with radiolabeled compounds in at least five phenotypically different human tumor cell lines (e.g. A549 lung carcinoma, MB468 breast carcinoma, DU145 prostate carcinoma, SKOV3 ovarian carcinoma, and U87 glial blastoma). These tumor cell lines can be grown either in vitro or in vivo with severe combined immunodeficiency (SCID) mice as a host. The fore-mentioned tumor cell lines are available at the Winship Cancer Institute of Emory University.
For the in vitro amino acid uptake studies, all cells can be grown to monolayer confluency in T-175 culture flasks [Corning, Corning, N.Y.] (approx. 1×10^8 cells/flask) in Dulbecco's Modified Eagle's Medium (DMEM) [Sigma, St. Louis, Mo.] in a humidified incubator (37° C., 5% CO2/95% air). Media are supplemented with 10% fetal calf serum [Hyclone, Logan, Utah], and antibiotics (10,000 U/ml penicillin and 10 mg/ml streptomycin) (Sigma, St. Louis, Mo.). For tissue culture passage, monolayer cells are detached by gentle trypsinization, resuspended in complete media, and split 1:10 into new T-flasks. […]
In the in vitro studies the uptake rate of each amino acid compound is measured in each tumor line, as well as the dominant transport mechanisms of each tumor cell line. After trypsinization, cells are resuspended in serum-free media, then counted on a hemocytometer, with viability assessed through Trypan blue staining. […] The vials are placed in a Cobra-II gamma counter (Packard, Meriden, Conn.), with the activity per cell number determined. […] Saline washes are performed as described above, and the filtered cells radioactivity determined on the gamma counter. […]

[1] = system: DU145 Prostate Tumor Cells Implanted SC in SCID Mice; test: tissue distribution, DU145 tumor-bearing SCID mice; format: in vivo
Experimental: For the in vitro amino acid uptake studies, all cells can be grown to monolayer confluency in T-175 culture flasks [Corning, Corning, N.Y.] (approx. 1×10^8 cells/flask) in Dulbecco's Modified Eagle's Medium (DMEM) [Sigma, St. Louis, Mo.] in a humidified incubator (37° C., 5% CO2/95% air). Media are supplemented with 10% fetal calf serum [Hyclone, Logan, Utah], and antibiotics (10,000 U/ml penicillin and 10 mg/ml streptomycin) (Sigma, St. Louis, Mo.). For tissue culture passage, monolayer cells are detached by gentle trypsinization, resuspended in complete media, and split 1:10 into new T-flasks. Cultures are passaged weekly, and fed fresh media every 2 to 3 days. To initiate tumor growth in SCID mice, 1×10^6 cells are injected s.c. bilaterally into the flanks (inguinal region) of the recipient animals using a 1 ml syringe with a 27 gauge needle. Ex vivo experiments can be performed with animals containing tumors weighing between 500 mg and 1 g, as estimated by caliper measurement (tumor weight=(π/6)*abc, where a, b and c are the tumor length, width and height, respectively). The compounds of the invention are further evaluated for their tumor specificity and selectivity in tumor-bearing animal models. One can evaluate and compare the transport, accumulation and tissue distribution of each compound in these in vivo animal studies. Tissue distribution of the compounds is measured in SCID mice (average weight, 20-25 g) bearing human tumors as follows. The candidate radioligands (20 uCi in 0.4 ml 0.9% NaCl) are injected into the tail vein of tumor-bearing mice. […] Tissues (blood, heart, liver, lungs, kidneys, bone, thyroid, muscle, brain and tumor) are excised, rinsed in saline, and blotted dry. The tissues are weighed, placed into 12×75 mm glass vials, the radioactivity determined with a gamma counter, and the percent dose/gram calculated. Total activities of blood and muscle are calculated by assuming that they account for 7% and 40% of the total body mass, respectively.

% Dose/g blood ([1]; 15 Minutes): 2.79 % Dose/g
% Dose/g bone ([1]; 15 Minutes): 1.05 % Dose/g
% Dose/g brain ([1]; 15 Minutes): 0.16 % Dose/g
% Dose/g heart ([1]; 15 Minutes): 2.07 % Dose/g
% Dose/g kidney ([1]; 15 Minutes): 6.81 % Dose/g
% Dose/g liver ([1]; 15 Minutes): 2.32 % Dose/g
% Dose/g lung ([1]; 15 Minutes): 3.35 % Dose/g
% Dose/g muscle ([1]; 15 Minutes): 0.83 % Dose/g
% Dose/g pancreas ([1]; 15 Minutes): 29.02 % Dose/g
% Dose/g spleen ([1]; 15 Minutes): 4.37 % Dose/g
% Dose/g tumor ([1]; 15 Minutes): 2.94 % Dose/g
% Dose/g blood ([1]; 30 Minutes): 1.85 % Dose/g
% Dose/g bone ([1]; 30 Minutes): 1.62 % Dose/g
% Dose/g brain ([1]; 30 Minutes): 0.16 % Dose/g
% Dose/g heart ([1]; 30 Minutes): 1.82 % Dose/g
% Dose/g kidney ([1]; 30 Minutes): 4.47 % Dose/g
% Dose/g liver ([1]; 30 Minutes): 2.08 % Dose/g
% Dose/g lung ([1]; 30 Minutes): 2.31 % Dose/g
% Dose/g muscle ([1]; 30 Minutes): 0.99 % Dose/g
% Dose/g pancreas ([1]; 30 Minutes): 29.29 % Dose/g
% Dose/g spleen ([1]; 30 Minutes): 4.74 % Dose/g
% Dose/g tumor ([1]; 30 Minutes): 3.54 % Dose/g
% Dose/g blood ([1]; 60 Minutes): 0.80 % Dose/g
% Dose/g bone ([1]; 60 Minutes): 2.22 % Dose/g
% Dose/g brain ([1]; 60 Minutes): 0.17 % Dose/g
% Dose/g heart ([1]; 60 Minutes): 1.32 % Dose/g
% Dose/g kidney ([1]; 60 Minutes): 1.82 % Dose/g
% Dose/g liver ([1]; 60 Minutes): 1.22 % Dose/g
% Dose/g lung ([1]; 60 Minutes): 1.18 % Dose/g
% Dose/g muscle ([1]; 60 Minutes): 1.15 % Dose/g
% Dose/g pancreas ([1]; 60 Minutes): 15.00 % Dose/g
% Dose/g spleen ([1]; 60 Minutes): 2.84 % Dose/g
% Dose/g tumor ([1]; 60 Minutes): 2.56 % Dose/g
% Dose/g blood ([1]; 120 Minutes): 0.38 % Dose/g
% Dose/g bone ([1]; 120 Minutes): 0.65 % Dose/g
% Dose/g brain ([1]; 120 Minutes): 0.12 % Dose/g
% Dose/g heart ([1]; 120 Minutes): 0.82 % Dose/g
% Dose/g kidney ([1]; 120 Minutes): 0.78 % Dose/g
% Dose/g liver ([1]; 120 Minutes): 0.42 % Dose/g
% Dose/g lung ([1]; 120 Minutes): 0.45 % Dose/g
% Dose/g muscle ([1]; 120 Minutes): 0.71 % Dose/g
% Dose/g pancreas ([1]; 120 Minutes): 5.92 % Dose/g
% Dose/g spleen ([1]; 120 Minutes): 0.87 % Dose/g
% Dose/g tumor ([1]; 120 Minutes): 1.84 % Dose/g
SMILES: NC1(C(=O)O)CCC1[18F] [Anti-R,S 2-[^18F]FACBC, (R,S) anti-1-amino-2-[^18F]fluorocyclobutyl-1-carboxylic acid]
% Dose Uptake/0.5e6 Cells (DU145 prostate carcinoma; DU145, No inhibitor): 6.40 +/− 0.60 % Dose Uptake/0.5e6 Cells
% Dose Uptake/0.5e6 Cells (DU145 prostate carcinoma; DU145, inhibitor BCH (10 mM)): 1.78 +/− 0.20 % Dose Uptake/0.5e6 Cells
% Dose Uptake/0.5e6 Cells (DU145 prostate carcinoma; DU145, inhibitor MeAlB (10 mM)): 2.07 +/− 0.26 % Dose Uptake/0.5e6 Cells

Source: patent US8834841B2, “Imaging agents” (priority 2005, dated 2014)
